{"source": "paper PMC12534982", "about": "(Journal of Experimental & Clinical Cancer Research : CR, 2025)", "key": {"colorectal cancer cells [1]": {"test_system": "colorectal cancer cells", "test": "Intracellular ATP levels (CellTiter-Glo)", "type": "cell-based, human", "conditions": "25 µM"}, "[2]": {"test_system": "human colorectal cancer cell lines", "test": "Cell viability assay (CellTiter-Glo)", "type": "cell-based", "conditions": "dose-dependent; 48 h"}, "colorectal cancer cells [3]": {"test_system": "colorectal cancer cells", "test": "Western blot", "type": "cell-based, human", "experimental": "Cancer cells (2.2 × 10^6) were cultured in 100-mm Petri dishes and treated with DMSO or NK-A 17E-233I (25 µM) for 48 h. Cells were harvested by scrapping into 2 × Laemmli buffer (4% SDS, 20% glycerol, 125 mM Tris–HCl, pH 6.8) and heated at 100 °C for 5 min. A 4 × Laemmli sample buffer containing β-mercaptoethanol was added to the cell lysates. The proteins were separated using sodium dodecyl sulfate polyacrylamide gel electrophoresis (SDS-PAGE) and subsequently transferred to polyvinylidene fluoride (PVDF) membranes (#88518; Thermo Fisher Scientific) following the manufacturer’s protocols. The membranes were blocked at room temperature for 1 h with 5% dried skimmed milk in Tris-buffered saline with Tween-20 (TBS-T) (20 mM Tris–HCl, pH 7.5, 150 mM NaCl, 0.1% Tween-20), and the blots were incubated with the corresponding antibodies at a dilution of 1:1000–1:3000 in a blocking buffer at 4 °C overnight.\nPrimary antibodies utilized in this study included: anti-human DHODH (#SC-166348; Santa Cruz), anti–CHK1-pS345 (#2348; Cell Signaling), anti-POLD2 (#29765–1-AP; Proteintech), anti-POLD1 (#15646–1-AP; Proteintech), anti-p53 (#SC-126; Santa Cruz), anti-KRAS, clone 4F3 (#SAB1404011; Sigma-Aldrich), anti-GAPDH (#ab9489; Abcam), anti–α-tubulin (#T9026; Sigma-Aldrich), anti-BAX (#SC-23959; Santa Cruz), anti-cytochrome c (#66264–1-IG; Proteintech), anti-DR5 (#3696; Cell Signaling, dilution 1:500), anti–caspase-8 (#SC-56070; Santa Cruz), and anti–caspase-3 (#9662; Cell Signaling, dilution 1:500). The membranes were incubated at room temperature for 1 h with secondary antibodies (diluted 1:3000–5000), either anti-rabbit (#A0545; Sigma-Aldrich) or anti-mouse IgG-horseradish peroxidase-conjugated (#A9044; Sigma-Aldrich), in TBS-T. The images were analyzed and quantified using ImageStudio software (LI-COR) or ImageQuant 10.2 TL analysis software (Cytiva Life Sciences)."}, "SW620 cells [4]": {"test_system": "SW620 cells", "test": "Intracellular nucleotides, orotate and DHO by HPLC–MS/MS", "type": "cell-based, human", "conditions": "25 µM, 24 h", "experimental": "Cancer cells (2.2 × 10^6) were cultured in 100-mm Petri dishes and treated with DMSO or NK-A 17E-233I (25 µM) for 24 h. Nucleotides and related compounds were extracted from cell pellets by treatment with 0.5 M trichloroacetic acid (TCA) followed by neutralization and solvent evaporation as detailed in [30]. Dry extracts were stored at -70°C until further analysis. Protein pellets sedimented after TCA precipitation were re-dissolved in 1 mL of 100 mM NaOH, 5% SDS by incubation at 95 °C for 5 min, followed by complete re-dissolution through several syringe strokes with a 23G needle. The concentration of the re-dissolved protein was quantified using the Pierce™ BCA Protein Assay Kit (Thermo Fisher Scientific), with the amount of the metabolites referenced to protein content.\nOn the day of metabolite analysis, the dry extracts were re-dissolved in 150 µL of water. Nucleotides, DHO and orotate concentrations were determined using HPLC–MS/MS using Acquity UPLC-Xevo™ TQ Mass Spectrometer (Waters, MA, USA), following the methodology described in [30]. The m/z transitions for DHO and orotate were 156.87 > 113.09 and 154.90 > 111.00, respectively. The identification of all compounds was based on retention time and specific ion transitions. The calibration curves generated with aqueous standards were processed concurrently, and the concentrations were derived from peak area interpolation using TargetLynx software (Waters, MA, USA)."}, "SW620 cells [5]": {"test_system": "SW620 cells", "test": "RNA sequencing (RNASeq)", "type": "cell-based, human", "conditions": "25 µM, 48 h", "experimental": "Cancer cells (2.2 × 10^6) were cultured in 100-mm Petri dishes and treated with either DMSO or NK-A 17E-233I (25 µM) for a duration of 48 h. Dry cell pellets were collected from three independent biological replicates and submitted to Novogene for RNASeq analysis (Cambridge, UK). The raw data are available in detail at the Zenodo repository (10.5281/zenodo.14833856)."}, "SW620 cells [6]": {"test_system": "SW620 cells", "test": "Lactate assay", "type": "cell-based, human", "conditions": "25 µM, 24 h; in comparison to Brequinar (100 µM)", "experimental": "This assessment was conducted utilizing a Lactate Assay Kit-WST (#L256-20; Dojindo Laboratories), in accordance with the manufacturer's protocol. Optical density measurements were recorded at 450 nm using a Victor Multilabel Plate Reader."}, "SW620 cells [7]": {"test_system": "SW620 cells", "test": "Glutathione assay (GSH/GSSG)", "type": "cell-based, human", "conditions": "25 µM, 24 h", "experimental": "Optical density measurements were recorded at 450 nm using a Victor Multilabel Plate Reader."}, "[8]": {"test_system": "healthy fibroblasts and keratinocytes", "test": "Cell viability / morphology in healthy cells", "type": "cell-based, human", "conditions": "25 µM, 48 h", "from_the_text": "Brightfield images were captured using a Leica DMi8 microscope with a 10X or 20X objective (HC PL FLUOTAR 10X/0.45 or 20X/0.75) equipped with a Leica DFC9000GT camera, and processed with a Leica Application Suite X (LAS X) Life Science Microscope Software (v3.5.5.19976, RRID:SCR_013673)."}, "[9]": {"conditions": "median [Minimum – Maximum], five experiments"}, "[10]": {"conditions": "median [Minimum – Maximum], four experiments"}}, "data": [{"smiles": "COc1cc(C)c(Oc2cc(C)cc(O)c2O)c(O)c1", "note": "[NK-A 17E-233I]", "values": [{"measurement": "ATP production / proliferation with non-physiological uridine", "setting": "colorectal cancer cells [1]; 200 µM uridine, various time points", "result": "did not impact the production of ATP or cancer cell proliferation"}, {"measurement": "levels of ATP", "setting": "colorectal cancer cells [1]; up to 24 h", "result": "reduced"}, {"measurement": "viability", "setting": "[2]", "result": "reduced the viability"}, {"measurement": "expression of wild-type p53 protein", "setting": "colorectal cancer cells [3]; 25 µM", "result": "without influencing the expression"}, {"measurement": "phosphorylation of CHK1 (pS345)", "setting": "colorectal cancer cells [3]; 25 µM", "result": "confirmed the phosphorylation of CHK1"}, {"measurement": "expression levels of DHODH", "setting": "colorectal cancer cells [3]; 25 µM, 48 h", "result": "did not observe a change"}, {"measurement": "levels of apoptotic markers (DR5, caspase-8, Bax, cytochrome c, caspase-3)", "setting": "colorectal cancer cells [3]; 25 µM, 48 h", "result": "increased levels"}, {"measurement": "protein expression levels of POLD1 and POLD2", "setting": "colorectal cancer cells [3]; 25 µM, 48 h", "result": "reductions"}, {"measurement": "expression of KRAS G13D mutant protein", "setting": "colorectal cancer cells [3]; HCT116 cells", "result": "reduced"}, {"measurement": "levels of p53-mutant protein", "setting": "colorectal cancer cells [3]; NK-A 17E-233I 25 µM, Brequinar", "result": "reduced"}, {"measurement": "expression of KRAS G12V mutant protein", "setting": "colorectal cancer cells [3]; SW620 cells", "result": "reduced"}, {"measurement": "levels of purine nucleotides", "setting": "SW620 cells [4]", "result": "remained unchanged"}, {"measurement": "ADP amount", "setting": "SW620 cells [4]; [9]", "result": "7,917 [5,048–9,389] pmoles/mg protein"}, {"measurement": "AMP + ADP + ATP amount", "setting": "SW620 cells [4]; [9]", "result": "26,257 [24,352 – 27,848] pmoles/mg protein"}, {"measurement": "AMP amount", "setting": "SW620 cells [4]; [9]", "result": "961 [405–2,739] pmoles/mg protein"}, {"measurement": "ATP amount", "setting": "SW620 cells [4]; [9]", "result": "15,907 [14,173–21,694] pmoles/mg protein"}, {"measurement": "CDP amount", "setting": "SW620 cells [4]; [9]", "result": "351 [143–504] pmoles/mg protein"}, {"measurement": "CMP + CDP + CTP amount", "setting": "SW620 cells [4]; [9]", "result": "6,327 [6,028 – 10,285] pmoles/mg protein"}, {"measurement": "CMP amount", "setting": "SW620 cells [4]; [9]", "result": "263 [220–707] pmoles/mg protein"}, {"measurement": "CTP amount", "setting": "SW620 cells [4]; [9]", "result": "5,801 [5,142–9,519] pmoles/mg protein"}, {"measurement": "GDP amount", "setting": "SW620 cells [4]; [9]", "result": "1,339 [1,008–1,566] pmoles/mg protein"}, {"measurement": "GMP + GDP + GTP amount", "setting": "SW620 cells [4]; [9]", "result": "5,228 [4,902 – 7,797] pmoles/mg protein"}, {"measurement": "GTP amount", "setting": "SW620 cells [4]; [9]", "result": "3,565 [3,407–6,418] pmoles/mg protein"}, {"measurement": "UDP amount", "setting": "SW620 cells [4]; [9]", "result": "927 [867–1,161] pmoles/mg protein"}, {"measurement": "UMP amount", "setting": "SW620 cells [4]; [9]", "result": "335 [81–424] pmoles/mg protein"}, {"measurement": "UTP amount", "setting": "SW620 cells [4]; [9]", "result": "4,013 [3,397–6,651] pmoles/mg protein"}, {"measurement": "GMP amount", "setting": "SW620 cells [4]; median [Minimum – Maximum], five experiments, undetectable treated as zero", "result": "156 [0–268] pmoles/mg protein"}, {"measurement": "DHO amount", "setting": "SW620 cells [4]; [10]", "result": "26.5 [18.3–228.5] pmoles/mg protein"}, {"measurement": "Orotate amount", "setting": "SW620 cells [4]; [10]", "result": "70.5 [61.7–137.1] pmoles/mg protein"}, {"measurement": "POLD2 gene expression (RNASeq)", "setting": "SW620 cells [5]", "result": "significantly downregulated"}, {"measurement": "concentration of lactate", "setting": "SW620 cells [6]", "result": "significantly reduced"}, {"measurement": "GSH/GSSG ratio", "setting": "SW620 cells [7]", "result": "significantly decreased"}, {"measurement": "oxidized glutathione (GSSG) levels", "setting": "SW620 cells [7]", "result": "increasing"}, {"measurement": "reduced glutathione (GSH) levels", "setting": "SW620 cells [7]", "result": "significantly decreased"}, {"measurement": "cytotoxic effects in healthy cells", "setting": "[8]", "result": "no similar effects were observed"}]}]}
